Laboratory results as given in EP0400319A1, “4-(4'-Halophenyl)-2-methyl-1,2,3,4-tetrahydroisoquinolines and process for their preparation” (N I S PRI VCHTI, priority 1989, dated 1990).
Where “and” joins values, the source holds several entries; their conditions need not be identical. Identical values can stand only once. Counter-ions that a name gives are not always drawn.

Tested on: durch Wasser-Immersionsstreß verursachte Magengeschwüre
Assay: Water-immersion stress induced gastric ulcers in rats
Format: in vivo, Ratten
Details: for Geschwürindex: 5 h water immersion; for Antiulkuswirkung im Vergleich zum Präparat Ranitidin: ratio of doses giving about 52% inhibition
Description: Untersucht wurde auch die Antiulkusaktivität der razemischen 1a- und 1b-Verbindungen auf ein experimentelles Modell von Wasser-Immersionsstreß verursachten Magengeschwüren bei Ratten (Tabelle 2). Das Vergleichspräparat war der H₂-Antagonist Ranitidin.
Bestimmung der inhibierenden Wirkung von 1a und 1b auf durch Wasser-Immersionsstreß verursachte Magengeschwüre bei Ratten
Die Versuche wurden mit 280 weißen männlichen Ratten der Rasse Wistar mit einem Gewicht von 150 bis 200 g nach der in K. Takadi, Y. Ischii, Arzneim. Forsch. Drug Res., 1967, 17, 1544, beschriebenen Methode durchgeführt. 18 h vor dem Versuch hungern die Tiere unter freiem Wasserzutritt. Die Versuchsverbindung wird oral verabreicht, worauf die Tiere unbeweglich und voneinander isoliert auf dem Rücken auf eine Unterlage gebunden werden. Man legt die Tiere bei 17-18°C ins Wasser und tötet sie nach 5 h. Die Mägen werden entnommen und die destruktiven Veränderungen makroskopisch bestimmt.

CN1Cc2ccccc2C(c2ccc(Br)cc2)C1 (racemic) [1a, 4-(4′-Bromphenyl)-2-methyl-1,2,3,4-tetrahydroisochinolin Hydrochlorid]
ED50 (Rattus norvegicus, 5 h, oral, Inhibierungsgrad 52% at this dose, read-out: durchschnittliche effektive Dosis): 0.5 mg/kg | Dosis, bei der der Inhibierungsgrad ein Maximum erreicht (oral): 3 mg/kg | Unterdrückung des Geschwürindex (oral, 0,050 mg/kg): 20,6% | Geschwürindex (oral, 0,050 mg/kg): 69 ±18,2 | Unterdrückung des Geschwürindex (oral, 0,100 mg/kg): 48,9% and 48,3% | Geschwürindex (oral, 0,100 mg/kg): 44,4 ± 9,66 | Unterdrückung des Geschwürindex (oral, 0,500 mg/kg): 52,1% | Geschwürindex (oral, 0,500 mg/kg): 30,8 ±17,7 | Unterdrückung des Geschwürindex (oral, 1,000 mg/kg): 58,9% | Geschwürindex (oral, 1,000 mg/kg): 35,7 ±14,2 | Unterdrückung des Geschwürindex (oral, 3,000 mg/kg): 70,3% | Geschwürindex (oral, 3,000 mg/kg): 19,5 ±12,3 | Antiulkuswirkung im Vergleich zum Präparat Ranitidin (oral): 20 Mal

CN1Cc2ccccc2C(c2ccc(F)cc2)C1 (racemic) [1b, 4-(4′-fluorphenyl)-2-methyl-1,2,3,4-tetrahydroisochinolin Hydrochlorid]
Unterdrückung des Geschwürindex (oral, 1,000 mg/kg): 41,53% | Geschwürindex (oral, 1,000 mg/kg): 38,5 ± 7,75 | Unterdrückung des Geschwürindex (oral, 3,000 mg/kg): 57,98% | Geschwürindex (oral, 3,000 mg/kg): 27,66±12,73 | Antiulkuswirkung im Vergleich zum Präparat Ranitidin (oral): Ähnliche Ergebnisse

CNC(=C[N+](=O)[O-])NCCSCc1ccc(CN(C)C)o1 [Ranitidin, reference compound]
Unterdrückung des Geschwürindex (oral, 10 mg/kg): 46,98% | Geschwürindex (oral, 10 mg/kg): 22,8 | Unterdrückung des Geschwürindex (oral, 30 mg/kg): 61,62% | Geschwürindex (oral, 30 mg/kg): 17,0 | Unterdrückung des Geschwürindex (oral, 0,500 mg/kg): 27% | Geschwürindex (oral, 0,500 mg/kg): 32,3 | Unterdrückung des Geschwürindex (oral, 1,000 mg/kg): 39,27% | Geschwürindex (oral, 1,000 mg/kg): 26,9 | Unterdrückung des Geschwürindex (oral, 3,000 mg/kg): 35,89% | Geschwürindex (oral, 3,000 mg/kg): 28,4
